These results are taken from US4761414A, “Substituted 1H-pyrimido[1,2-a-]-pyrido[3,4-e]pyrazine 6 oxides” (G. D. Searle & Co., priority 1986, dated 1988).

What all share (assay type): cell-based
Assay [1] has as its system Campylobacter fetus ss. jejuni NCTC 10842. Kind of assay: MIC vs panel of anaerobes. To be noted: NCTC10842, procedures of Example 40.
The test system of assay [2] is Clostridium perfringens NCTC 8237. Briefly: microbe, parasite or virus in culture. Conditions: Clostridium perfringens, NCTC8237, Clostridium perfringens NCTC 8237; procedures of Example 40.
The test system of the next assay is B. fragilis NCTC 9343. Kind of assay: MIC/MBC against Bacteroides fragilis strain B. To be noted: for MBC: NCTC9343, 99.9% reduction in viable count; for MIC: NCTC9343, 48 h, 48 hours, 37° C., anaerobic. Here is the method:
(§1) The screening panel utilized in this Example consisted of 5 strains of Bacteroides fragilis. All assays were carried out in 96-well microtitre plates. If an isolate was obtained from either a culture collection or clinical source, the isolate was immediately inoculated into Wilkens-Chalgren broth (Oxoid) and incubated at 37° C. in an anaerobic chamber in an atmosphere of 85% nitrogen, 10% carbon dioxide, and 5% hydrogen for 48 hours. At the end of this time, the viable count was about 10^12 organisms/ml broth. A 1 ml aliquot of each culture was placed in an ampoule and quick frozen in acetone-dry ice mixture and stored in liquid nitrogen. When an inoculum was utilized in an assay, one of the ampoules was thawed and diluted with fresh broth to yield a suspension having a count of 5×10^5 organisms/ml. A 100 μl aliquot of this suspension was inoculated into each well of the microtitre plate. A 2 mg sample of the test compound was dissolved in 0.2 ml of a suitable solvent such as dimethylsulfoxide, polyethylene glycol 200 or methanol. […] After addition of the test solution the final inoculum level was 10^5 cells/ml. The plates were incubated for 48 hours at 37° C. in the anaerobic chamber. The Minimum Inhibitory Concentration (MIC) was read visually. The MIC is defined as the lowest concentration at which there is no detectable growth. The Minimum Bactericidal Concentration (MBC) was determined by taking 50 μl aliquot from each well and placing it in fresh medium. […] The strains of Bacteroides fragilis utilized in the above procedure are identified by letter in accordance with the following legend: |B B. fragilis NCTC 9343

In assay [3] the test system is B. fragilis MZ-R ATCC 11295. Briefly: MIC/MBC against Bacteroides fragilis strain D. To be noted: for MBC: ATCC11295, 99.9% reduction in viable count; for MIC: ATCC11295, 48 h, 48 hours, 37° C., anaerobic. On the procedure:
The screening panel utilized in this Example consisted of 5 strains of Bacteroides fragilis. All assays were carried out in 96-well microtitre plates. If an isolate was obtained from either a culture collection or clinical source, the isolate was immediately inoculated into Wilkens-Chalgren broth (Oxoid) and incubated at 37° C. in an anaerobic chamber in an atmosphere of 85% nitrogen, 10% carbon dioxide, and 5% hydrogen for 48 hours. At the end of this time, the viable count was about 10^12 organisms/ml broth. A 1 ml aliquot of each culture was placed in an ampoule and quick frozen in acetone-dry ice mixture and stored in liquid nitrogen. When an inoculum was utilized in an assay, one of the ampoules was thawed and diluted with fresh broth to yield a suspension having a count of 5×10^5 organisms/ml. A 100 μl aliquot of this suspension was inoculated into each well of the microtitre plate. A 2 mg sample of the test compound was dissolved in 0.2 ml of a suitable solvent such as dimethylsulfoxide, polyethylene glycol 200 or methanol. […] After addition of the test solution the final inoculum level was 10^5 cells/ml. The plates were incubated for 48 hours at 37° C. in the anaerobic chamber. The Minimum Inhibitory Concentration (MIC) was read visually. The MIC is defined as the lowest concentration at which there is no detectable growth. The Minimum Bactericidal Concentration (MBC) was determined by taking 50 μl aliquot from each well and placing it in fresh medium.

A further assay deals with B. fragilis NCTC 10581. Briefly: MIC/MBC against Bacteroides fragilis strain A (96-well microtitre plates, anaerobic chamber). To be noted: Bacteroides fragilis; for MBC: NCTC10581, 99.9% reduction in viable count; for MIC: NCTC10581, 48 h, 48 hours, 37° C., anaerobic. On the procedure: as §1, with “|A” for “|B”, “10581” for “9343”
Another assay concerns B. fragilis NCTC 9344. Briefly: MIC/MBC against Bacteroides fragilis strain C. Conditions: for MBC: NCTC9344, 99.9% reduction in viable count; for MIC: NCTC9344, 48 h, 48 hours, 37° C., anaerobic. On the procedure: as §1, with “|C” for “|B”, “9344” for “9343”

Each structure is given as a SMILES string. In brackets after ≈: the same amount, converted by molar mass.

Regarding `CC1(C)CN=C2C(c3ccccc3)=[N+]([O-])c3ccncc3N2C1` [Example 14, 2,3-Dihydro-2,2-dimethyl-5-phenyl-1H-pyrimido[1,2-a]pyrido[4,3-e]pyrazine 6-oxide], the MIC in assay [1] was determined as 50 µg/mL (≈ 163 µM); in assay [2], 25 µg/mL (≈ 81.6 µM); against B. fragilis NCTC 9343, 3.1 µg/mL (≈ 10.1 µM); in assay [3], 3.1 µg/mL (≈ 10.1 µM); with B. fragilis NCTC 10581, 6.2 µg/mL (≈ 20.2 µM); with B. fragilis NCTC 9344, 6.2 µg/mL (≈ 20.2 µM). Besides, the MBC in the assay on B. fragilis NCTC 9343 was 6.2 µg/mL (≈ 20.2 µM); in assay [3] it was 3.1 µg/mL (≈ 10.1 µM); in the assay with B. fragilis NCTC 10581, 12.5 µg/mL (≈ 40.8 µM); against B. fragilis NCTC 9344 it was 6.2 µg/mL (≈ 20.2 µM).

In the case of `CC1(C)CN=C2C(c3ccc(F)cc3)=[N+]([O-])c3cccnc3N2C1` [Example 31, 2,3-Dihydro-2,2-dimethyl-5-(4-fluorophenyl)-1H-pyrimido[1,2-a]pyrido[3,2-e]pyrazine 6-oxide], the MIC was 50 µg/mL (≈ 154 µM) in assay [1]; 12.5 µg/mL (≈ 38.5 µM) in assay [2]; < 0.8 µg/mL against B. fragilis NCTC 9343; < 0.8 µg/mL in assay [3]; < 0.8 µg/mL against B. fragilis NCTC 10581; < 0.8 µg/mL with B. fragilis NCTC 9344. The MBC (in the assay with B. fragilis NCTC 9343; in assay [3]; against B. fragilis NCTC 10581; against B. fragilis NCTC 9344) was < 0.8 µg/mL in each case.

For the molecule `CCC1(CC)CN=C2C(c3ccccc3)=[N+]([O-])c3cnccc3N2C1` [Example 25, 2,3-Dihydro-2,2-diethyl-5-phenyl-1H-pyrimido[1,2-a]pyrido[3,4-e]pyrazine 6-oxide], the MIC in assay [1] was determined as 6.2 µg/mL (≈ 18.5 µM); in assay [2], 3.1 µg/mL (≈ 9.27 µM); in the assay on B. fragilis NCTC 9343, 1.5 µg/mL (≈ 4.49 µM); in assay [3], 1.5 µg/mL (≈ 4.49 µM); against B. fragilis NCTC 10581, 1.5 µg/mL (≈ 4.49 µM); with B. fragilis NCTC 9344 it was 1.5 µg/mL (≈ 4.49 µM). In addition, the minimal bactericidal concentration (MBC) turned out to be 1.5 µg/mL (≈ 4.49 µM) with B. fragilis NCTC 9343, 1.5 µg/mL (≈ 4.49 µM) in assay [3], 3.1 µg/mL (≈ 9.27 µM) against B. fragilis NCTC 10581 and 1.5 µg/mL (≈ 4.49 µM) with B. fragilis NCTC 9344.

For `CCC1(C)CN=C2C(c3ccccc3)=[N+]([O-])c3cccnc3N2C1` (stereo not drawn) [Example 24, 2,3-Dihydro-2-ethyl-2-methyl-5-phenyl-1H-pyrimido[1,2-a]pyrido[3,2-e]pyrazine 6-oxide], the MIC was 100 µg/mL (≈ 312 µM) in assay [1]; 6.2 µg/mL (≈ 19.4 µM) in assay [2]; < 0.8 µg/mL with B. fragilis NCTC 9343; < 0.8 µg/mL in assay [3]; < 0.8 µg/mL in the assay with B. fragilis NCTC 10581; < 0.8 µg/mL in the assay on B. fragilis NCTC 9344. Further, the MBC (with B. fragilis NCTC 9343; in assay [3]; with B. fragilis NCTC 10581; against B. fragilis NCTC 9344) was < 0.8 µg/mL throughout.

In the case of `CCC1(C)CN=C2C(c3ccccc3)=[N+]([O-])c3cnccc3N2C1` (stereo not drawn) [Example 23, 2,3-Dihydro-2-ethyl-2-methyl-5-phenyl-1H-pyrimido[1,2-a]pyrido[3,4-e]pyrazine 6-oxide], the MIC is 100 µg/mL (≈ 312 µM) in assay [1]; 6.2 µg/mL (≈ 19.4 µM) in assay [2]; < 0.8 µg/mL with B. fragilis NCTC 9343; < 0.8 µg/mL in assay [3]; 1.5 µg/mL (≈ 4.68 µM) against B. fragilis NCTC 10581; < 0.8 µg/mL in the assay on B. fragilis NCTC 9344. Also, the MBC in the assay on B. fragilis NCTC 9343 was < 0.8 µg/mL; in assay [3], < 0.8 µg/mL; with B. fragilis NCTC 10581, 1.5 µg/mL (≈ 4.68 µM); in the assay on B. fragilis NCTC 9344 it was < 0.8 µg/mL.

`CC1(C)CN=C2C(c3ccc(Cl)cc3)=[N+]([O-])c3cnccc3N2C1` [Example 17, 2,3-Dihydro-5-(4-chlorophenyl)-2,2-dimethyl-1H-pyrimido[1,2-a]pyrido[3,4-e]pyrazine 6-oxide]: the MIC in assay [1] is 50 µg/mL (≈ 147 µM); in assay [2], 6.2 µg/mL (≈ 18.2 µM); in the assay on B. fragilis NCTC 9343 it was 1.5 µg/mL (≈ 4.4 µM); in assay [3], < 0.8 µg/mL; with B. fragilis NCTC 10581, < 0.8 µg/mL; in the assay on B. fragilis NCTC 9344, < 0.8 µg/mL. Besides, the MBC in the assay with B. fragilis NCTC 9343 was 1.5 µg/mL (≈ 4.4 µM); in assay [3] it was < 0.8 µg/mL; in the assay with B. fragilis NCTC 10581, < 0.8 µg/mL; in the assay on B. fragilis NCTC 9344, < 0.8 µg/mL.

As to `CC1CN=C2C(c3ccccc3)=[N+]([O-])c3cccnc3N2C1` (stereo not drawn) [Example 32, 2,3-Dihydro-2-methyl-5-phenyl-1H-pyrimido[1,2-a]pyrido[3,2-e]pyrazine 6-oxide], the MIC in assay [1] was < 0.8 µg/mL; in assay [2], 6.2 µg/mL (≈ 21.2 µM); against B. fragilis NCTC 9343, 1.5 µg/mL (≈ 5.13 µM); in assay [3] it was < 0.8 µg/mL; in the assay on B. fragilis NCTC 10581, < 0.8 µg/mL; against B. fragilis NCTC 9344 it was < 0.8 µg/mL. In addition, the MBC with B. fragilis NCTC 9343 is 1.5 µg/mL (≈ 5.13 µM); in assay [3] it was < 0.8 µg/mL; in the assay on B. fragilis NCTC 10581, < 0.8 µg/mL; against B. fragilis NCTC 9344, < 0.8 µg/mL.

For `Cc1ccc(C2=[N+]([O-])c3cnccc3N3CC(C)(C)CN=C23)cc1` [Example 19, 2,3-Dihydro-2,2-dimethyl-5-(4-methylphenyl)-1H-pyrimido[1,2-a]pyrido[3,4-e]pyrazine 6-oxide], the MIC is 6.2 µg/mL (≈ 19.4 µM) in assay [1]; 1.5 µg/mL (≈ 4.68 µM) in assay [2]; < 0.8 µg/mL against B. fragilis NCTC 9343; 1.5 µg/mL (≈ 4.68 µM) in assay [3]; 1.5 µg/mL (≈ 4.68 µM) in the assay with B. fragilis NCTC 10581; < 0.8 µg/mL in the assay on B. fragilis NCTC 9344. Moreover, the MBC in the assay on B. fragilis NCTC 9343 was 1.5 µg/mL (≈ 4.68 µM); in assay [3] it was 1.5 µg/mL (≈ 4.68 µM); against B. fragilis NCTC 10581 it was 1.5 µg/mL (≈ 4.68 µM); in the assay with B. fragilis NCTC 9344, < 0.8 µg/mL.

Regarding `CCC1(CC)CN=C2C(c3ccccc3)=[N+]([O-])c3cccnc3N2C1` [Example 26, 2,3-Dihydro-2,2-diethyl-5-phenyl-1H-pyrimido[1,2-a]pyrido[3,2-e]pyrazine 6-oxide], the MIC in assay [1] is 25 µg/mL (≈ 74.8 µM); in assay [2] it was 1.5 µg/mL (≈ 4.49 µM); in the assay on B. fragilis NCTC 9343, 1.5 µg/mL (≈ 4.49 µM); in assay [3], < 0.8 µg/mL; with B. fragilis NCTC 10581, < 0.8 µg/mL; with B. fragilis NCTC 9344, < 0.8 µg/mL. The minimum bactericidal concentration (MBC) was 1.5 µg/mL (≈ 4.49 µM) against B. fragilis NCTC 9343, < 0.8 µg/mL in assay [3], < 0.8 µg/mL against B. fragilis NCTC 10581 and < 0.8 µg/mL against B. fragilis NCTC 9344.

The term MBC denotes the lowest tested concentration that kills the bacteria rather than only halting them.
